Results published in patent US6479050B1, “Trace element-rich additive, method for preparing same, preparation in which the additive is included and use thereof” (Innovi N.V., priority 1991, dated 2002).
Several values for one entry are separate records, joined by “and”; a condition that tells them apart may be missing. Equal values may be shown once.

Key:
[1] = tested on: glutathione-peroxidase; test: In vivo effect of the additive on glutathione-peroxidase activity in plasma; set-up: species or system human
Description: In vivo effect to the additive according to the invention on the glutathione-peroxidase activity in plasma.
(§1) For three weeks a quantity of 3 microgrammes of Se in the form of the additive according to the invention was administered daily to a child suffering from Protein Lysine Intolerance (PLI).

[2] = Se content in plasma during supplementation; conditions: child with Protein Lysine Intolerance, additive 3 microgrammes Se daily for three weeks, selenite as second supplementation after 13 months, successive samples
Description: as §1

## O=[Se](O)O [selenite]
[1]; child with PLI, during supplementation
  glutathione peroxidase activity in the plasma (change during supplementation, in words): no increase
[1]; plasma, child with Protein Lysine Intolerance, additive 3 microgrammes Se daily for three weeks, selenite as second supplementation after 13 months, successive samples
  glutathione-peroxidase activity: 0.13 U/ml and 0.12 U/ml
[2]
  Se-content: 20 ng/mL and 22 ng/mL and 24 ng/mL and 23 ng/mL
